Measurements taken from article PMC8745601 (International Journal of Molecular Sciences, 2021).
Changes are numbered by the printed parent chain.

Experiments:
P-gp = target: T1, P-gp (Homo sapiens, UniProt P08183); assay: Transwell assay, MDCKII cells stably expressing P-gp; type: cell-based; details: 100 µmol/L doxorubicin; MDCKII-P-gp on Transwell
T1 construct: expressed in transfected cells; host or cells: MDCKII
Method: In brief, MDCKII cells stably expressing P-gp or BCRP were seeded on 0.4 µm Transwell® membrane inserts (200.000 cells/insert; Ø6.5 mm, growth area 0.33 cm2) and allowed to differentiate for five days. The integrity of the monolayer was confirmed by monitoring the trans-epithelial electrical resistance (TEER) using the EVOMX system (WPI, Sarasota, FL, USA). […] Every 30 min, the incubation buffer was removed from the receiver compartment and replaced by a freshly preheated buffer for a total time of 2.5 h.

OATP1A2*1 = target: T2, OATP1A2*1 (Homo sapiens, UniProt P46721); assay: in vitro
T2 sequence (P46721 1-670): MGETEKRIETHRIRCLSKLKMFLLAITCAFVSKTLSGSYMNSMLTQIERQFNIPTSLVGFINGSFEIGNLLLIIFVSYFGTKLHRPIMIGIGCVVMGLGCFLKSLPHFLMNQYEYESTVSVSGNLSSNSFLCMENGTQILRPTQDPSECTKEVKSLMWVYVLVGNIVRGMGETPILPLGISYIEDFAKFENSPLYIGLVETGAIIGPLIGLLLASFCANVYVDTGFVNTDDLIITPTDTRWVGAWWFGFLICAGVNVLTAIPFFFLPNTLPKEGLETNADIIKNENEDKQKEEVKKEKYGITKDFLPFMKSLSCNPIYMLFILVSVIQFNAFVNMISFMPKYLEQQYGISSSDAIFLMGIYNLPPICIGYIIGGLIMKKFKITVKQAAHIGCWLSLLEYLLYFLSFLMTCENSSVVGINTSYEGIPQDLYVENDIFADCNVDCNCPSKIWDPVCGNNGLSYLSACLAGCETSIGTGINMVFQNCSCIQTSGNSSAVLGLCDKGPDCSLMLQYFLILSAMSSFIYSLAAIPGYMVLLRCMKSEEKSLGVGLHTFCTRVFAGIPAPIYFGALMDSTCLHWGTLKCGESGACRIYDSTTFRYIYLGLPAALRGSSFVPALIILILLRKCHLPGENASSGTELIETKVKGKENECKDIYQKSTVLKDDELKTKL
Method: (§1) Cellular uptake studies: For all transport studies, cells were seeded in 24-well plates and incubated in a full growth medium at an initial density of 200,000 cells/well for 3 days. Before starting each transport experiment, cells were washed with a pre-warmed (37 °C) incubation buffer [64]. […] Protein concentration of whole cell lysate was determined to quantify cell density after each experiment using the BCA assay according to the manufacturer’s instructions (Pierce, Rockford, IL, USA).
(§2) Protein abundance of OATP1A2*1–*3 and OCT1–3 were measured by mass spectrometry-based targeted proteomics using a validated LC-MS/MS method as recently described [65].
(§3) 200 μL of each cell lysate sample was mixed with 25 μL internal standard (5 µg/mL daunorubicin), 25 μL citric acid (1%), and 400 μL ice-cold acetonitrile for protein precipitation. […] The clear supernatant was transferred to HPLC vials. The measurement and quantitative evaluation were carried out using the LC-MS/MS system QTRAP 4000® (AB SCIEX, Darmstadt, Germany) and the Software Analyst® 1.4 (Applied Biosystems, Darmstadt, Germany).
(§4) Statistical evaluation: All experiments were performed at least three times unless otherwise noted. The OATP1A2*1–*3 and OCT1-3 net uptake was obtained by subtracting the uptake into wild-type cells from that of the transporter-transfected cells. […]

OATP1A2*3 = target: T3, OATP1A2*3 (Homo sapiens, UniProt P46721, E172D); assay: in vitro
T3 sequence (P46721 1-670 E172D): T2 sequence (P46721 1-670) with E172D
Method: as §1, §2, §3, §4

OCT2 = target: T4, OCT2 (Homo sapiens, UniProt O15244); assay: in vitro; details: mdck
T4 sequence (O15244 1-555): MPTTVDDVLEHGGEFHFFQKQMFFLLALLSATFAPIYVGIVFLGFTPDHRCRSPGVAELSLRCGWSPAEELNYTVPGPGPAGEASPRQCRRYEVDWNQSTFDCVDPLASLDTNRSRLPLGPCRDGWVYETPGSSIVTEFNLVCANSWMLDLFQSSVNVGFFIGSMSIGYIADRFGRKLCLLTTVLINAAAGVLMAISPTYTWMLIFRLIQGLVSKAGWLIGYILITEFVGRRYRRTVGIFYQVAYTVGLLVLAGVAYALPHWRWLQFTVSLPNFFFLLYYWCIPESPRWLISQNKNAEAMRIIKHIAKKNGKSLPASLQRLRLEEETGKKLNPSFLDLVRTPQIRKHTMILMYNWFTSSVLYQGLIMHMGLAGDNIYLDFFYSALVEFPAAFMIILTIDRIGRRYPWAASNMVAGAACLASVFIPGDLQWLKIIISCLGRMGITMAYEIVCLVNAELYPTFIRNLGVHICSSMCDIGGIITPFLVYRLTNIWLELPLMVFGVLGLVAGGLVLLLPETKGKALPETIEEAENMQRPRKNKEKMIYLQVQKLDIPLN
Method: as §1
Statistical evaluation: All experiments were performed at least three times unless otherwise noted. The OATP1A2*1–*3 and OCT1-3 net uptake was obtained by subtracting the uptake into wild-type cells from that of the transporter-transfected cells. Km and Vmax were assessed using Prism 5.01 (GraphPad Software, San Diego, CA, USA). The differences in the doxorubcin uptake in OATP1A2*1–*3 and in OCT1-3 transfected cells were adjusted to the membranous transporter protein levels in the whole cell lysate. Km and Vmax are presented as arithmetic means ± standard deviation.

OCT1-3 and OATP1A2 = assay: in vitro; details: human, OATP1A2*1 and OCT1-3 transfected cells
Method: as §1, §2
Statistical evaluation: All experiments were performed at least three times unless otherwise noted. The OATP1A2*1–*3 and OCT1-3 net uptake was obtained by subtracting the uptake into wild-type cells from that of the transporter-transfected cells. Km and Vmax were assessed using Prism 5.01 (GraphPad Software, San Diego, CA, USA). […] Km and Vmax are presented as arithmetic means ± standard deviation.

T1 sequence (P08183 whole entry): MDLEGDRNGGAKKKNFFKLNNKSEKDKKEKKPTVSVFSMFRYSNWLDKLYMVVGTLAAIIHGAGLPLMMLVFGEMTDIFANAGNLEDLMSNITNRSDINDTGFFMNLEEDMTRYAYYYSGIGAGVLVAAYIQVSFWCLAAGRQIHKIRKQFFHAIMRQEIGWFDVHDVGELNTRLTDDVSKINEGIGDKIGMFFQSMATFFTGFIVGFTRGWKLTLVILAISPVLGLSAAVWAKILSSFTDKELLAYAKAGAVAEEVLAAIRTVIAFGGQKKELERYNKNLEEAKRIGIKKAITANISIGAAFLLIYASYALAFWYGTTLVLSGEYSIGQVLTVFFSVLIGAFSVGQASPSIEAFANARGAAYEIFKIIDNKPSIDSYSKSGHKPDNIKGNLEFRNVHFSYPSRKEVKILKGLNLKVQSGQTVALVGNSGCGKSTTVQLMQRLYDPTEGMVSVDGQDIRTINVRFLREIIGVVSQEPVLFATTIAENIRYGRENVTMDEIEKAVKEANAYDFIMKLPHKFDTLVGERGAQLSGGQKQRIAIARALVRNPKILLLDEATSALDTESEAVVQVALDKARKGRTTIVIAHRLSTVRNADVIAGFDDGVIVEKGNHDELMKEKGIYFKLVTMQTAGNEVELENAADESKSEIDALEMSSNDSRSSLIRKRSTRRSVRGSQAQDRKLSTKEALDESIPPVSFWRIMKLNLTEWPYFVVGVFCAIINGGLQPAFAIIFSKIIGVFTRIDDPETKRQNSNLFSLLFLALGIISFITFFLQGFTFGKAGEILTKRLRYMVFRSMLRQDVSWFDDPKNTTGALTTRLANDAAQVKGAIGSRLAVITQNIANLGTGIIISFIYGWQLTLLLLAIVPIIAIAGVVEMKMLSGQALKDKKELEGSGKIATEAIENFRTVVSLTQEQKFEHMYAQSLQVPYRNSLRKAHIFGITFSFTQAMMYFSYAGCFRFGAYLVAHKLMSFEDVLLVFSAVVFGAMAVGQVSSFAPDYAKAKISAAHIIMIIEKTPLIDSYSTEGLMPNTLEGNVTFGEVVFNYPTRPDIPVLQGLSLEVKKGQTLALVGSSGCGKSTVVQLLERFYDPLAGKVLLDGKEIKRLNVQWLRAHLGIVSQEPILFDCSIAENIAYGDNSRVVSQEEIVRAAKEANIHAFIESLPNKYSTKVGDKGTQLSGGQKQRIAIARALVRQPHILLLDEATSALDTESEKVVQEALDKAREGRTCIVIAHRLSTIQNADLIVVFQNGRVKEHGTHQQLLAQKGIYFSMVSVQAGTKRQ

COc1cccc2c1C(=O)c1c(O)c3c(c(O)c1C2=O)C[C@@](O)(C(=O)CO)C[C@@H]3O[C@H]1C[C@H](N)[C@H](O)[C@H](C)O1 [doxorubicin, Doxorubicin]
vectorial transport of doxorubicin by P-gp (P-gp): vectorial transport from the basolateral to the apical compartment | Km at 5 min (OATP1A2*1; HEK293 cells stably expressing OATP1A2*1): 7.49 ± 3.41 µM | microsomal CLint at 5 min (OATP1A2*1; other cell line): 4.71 ± 1.53 µL/min/mg | Km (OATP1A2*3; HEK293 cells stably expressing OATP1A2*3): 5.94 ± 3.07 µM | microsomal CLint (OATP1A2*3; other cell line): 2.32 ± 0.99 µL/min/mg | microsomal CLint at 3 min (OCT2): 0.5 ± 0.26 µL/min/mg | Km (OCT1-3 and OATP1A2): 5 to 13 µM
